Measurements taken from ChEMBL document CHEMBL1201862, “PubChem BioAssay data set” (2004).
Active and inactive are the calls of the source.

Columns and labels:
[1] = target: T1, Microphthalmia-associated transcription factor (Homo sapiens, UniProt O75030); assay: TRPM1 promoter luciferase signal decrease, dose response, MITF inhibitor project, cell-based, SK-MEL-5, cherry-picked, set 3 (AID 493073); assay type: functional
T1 sequence (O75030 whole entry): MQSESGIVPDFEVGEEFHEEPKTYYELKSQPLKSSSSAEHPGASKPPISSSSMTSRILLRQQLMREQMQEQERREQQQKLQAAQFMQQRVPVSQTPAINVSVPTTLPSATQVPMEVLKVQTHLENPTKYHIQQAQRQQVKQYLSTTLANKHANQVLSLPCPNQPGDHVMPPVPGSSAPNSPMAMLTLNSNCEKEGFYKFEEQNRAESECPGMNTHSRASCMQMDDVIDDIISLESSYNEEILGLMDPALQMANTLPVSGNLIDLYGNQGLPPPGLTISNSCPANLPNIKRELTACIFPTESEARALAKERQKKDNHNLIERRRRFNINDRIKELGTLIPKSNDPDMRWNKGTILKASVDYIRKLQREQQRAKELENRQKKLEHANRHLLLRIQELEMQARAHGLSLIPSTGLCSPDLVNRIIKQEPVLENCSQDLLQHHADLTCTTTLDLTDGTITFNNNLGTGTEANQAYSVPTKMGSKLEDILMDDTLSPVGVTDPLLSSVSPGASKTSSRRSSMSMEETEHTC

[2] = HepG2 cell cytotoxicity, dose response, cytotoxicity control for non-replicating M. tuberculosis project (AID 489018); assay type: functional; settings: Mycobacterium tuberculosis
[3] = Vero E6 cell cytotoxicity, dose response, cytotoxicity control for non-replicating M. tuberculosis project, secondary assay (AID 492998); assay type: functional, VeroE6; settings: Vero C1008
cells [4] = assay type: functional
[5] = THP-1 cell cytotoxicity, dose response, cytotoxicity control for non-replicating M. tuberculosis project (AID 489025); assay type: functional
Cannabinoid receptor 1 [6] = target: T2, Cannabinoid receptor 1 (Homo sapiens, UniProt P21554); assay: SAR analysis of antagonists of the Cannabinoid Receptor 1 using an Image-Based Assay - Set 2. [Related pubchem assays (depositor defined):AID2013, AID2026]; assay type: functional
T2 sequence (P21554 whole entry): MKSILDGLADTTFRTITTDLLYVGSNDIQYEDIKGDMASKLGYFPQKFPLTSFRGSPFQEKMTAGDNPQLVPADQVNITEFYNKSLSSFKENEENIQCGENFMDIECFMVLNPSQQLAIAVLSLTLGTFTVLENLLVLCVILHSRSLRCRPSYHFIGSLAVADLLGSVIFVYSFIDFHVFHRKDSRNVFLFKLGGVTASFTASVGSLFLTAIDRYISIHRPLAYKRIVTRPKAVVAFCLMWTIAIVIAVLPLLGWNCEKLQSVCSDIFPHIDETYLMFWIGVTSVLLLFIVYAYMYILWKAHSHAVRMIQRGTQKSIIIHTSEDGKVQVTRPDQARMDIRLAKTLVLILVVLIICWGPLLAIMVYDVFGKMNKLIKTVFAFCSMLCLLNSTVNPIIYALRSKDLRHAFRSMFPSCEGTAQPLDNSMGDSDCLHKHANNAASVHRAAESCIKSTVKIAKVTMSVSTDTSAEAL

[7] = target: T3, G-protein coupled receptor 35 (Homo sapiens, UniProt Q9HC97); assay: SAR analysis of Agonists of the GPR35 Receptor using an Image-Based Assay - Set 2. [Related pubchem assays (depositor defined):AID2013, AID2026]; assay type: functional
T3 sequence (Q9HC97 whole entry): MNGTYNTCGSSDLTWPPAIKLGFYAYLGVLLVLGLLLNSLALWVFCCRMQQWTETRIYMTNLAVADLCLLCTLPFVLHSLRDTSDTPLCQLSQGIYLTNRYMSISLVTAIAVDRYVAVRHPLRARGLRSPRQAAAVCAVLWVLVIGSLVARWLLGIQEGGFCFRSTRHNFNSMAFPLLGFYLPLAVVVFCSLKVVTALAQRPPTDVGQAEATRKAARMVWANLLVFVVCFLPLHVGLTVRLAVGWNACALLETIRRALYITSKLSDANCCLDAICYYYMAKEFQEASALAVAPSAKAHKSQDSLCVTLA

Cannabinoid receptor 2 [8] = target: T4, Cannabinoid receptor 2 (Homo sapiens, UniProt P34972); assay: SAR analysis of agonists of the Cannabinoid Receptor 2 using an Image-Based Assay. [Related pubchem assays (depositor defined):AID2013, AID2026]; assay type: functional
T4 sequence (P34972 whole entry): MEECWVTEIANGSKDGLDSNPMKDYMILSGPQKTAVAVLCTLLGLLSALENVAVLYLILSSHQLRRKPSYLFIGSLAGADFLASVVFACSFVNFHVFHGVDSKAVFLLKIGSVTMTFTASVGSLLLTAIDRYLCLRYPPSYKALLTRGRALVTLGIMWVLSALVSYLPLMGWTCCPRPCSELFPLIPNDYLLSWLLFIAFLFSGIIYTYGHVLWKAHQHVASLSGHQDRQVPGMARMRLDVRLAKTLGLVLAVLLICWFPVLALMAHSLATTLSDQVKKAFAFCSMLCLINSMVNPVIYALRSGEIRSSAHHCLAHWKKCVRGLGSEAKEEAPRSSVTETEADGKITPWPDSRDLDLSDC

[9] = target: T3, G-protein coupled receptor 35; assay: SAR analysis of Antagonists of the GPR35 Receptor using an Image-Based Assay - Set 3. [Related pubchem assays (depositor defined):AID2013, AID2026]; assay type: functional
[10] = target: T5, G-protein coupled receptor 55 (Homo sapiens, UniProt Q9Y2T6); assay: GPR55 antagonists blocking LPI-driven arrestin recruitment, primary screen, imaging, U2OS, beta-arrestin-GFP, LPI agonist (AID 2013); assay type: functional;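 note: antagonist potency measured as reduced agonist-driven arrestin aggregation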
T5 sequence (Q9Y2T6 whole entry): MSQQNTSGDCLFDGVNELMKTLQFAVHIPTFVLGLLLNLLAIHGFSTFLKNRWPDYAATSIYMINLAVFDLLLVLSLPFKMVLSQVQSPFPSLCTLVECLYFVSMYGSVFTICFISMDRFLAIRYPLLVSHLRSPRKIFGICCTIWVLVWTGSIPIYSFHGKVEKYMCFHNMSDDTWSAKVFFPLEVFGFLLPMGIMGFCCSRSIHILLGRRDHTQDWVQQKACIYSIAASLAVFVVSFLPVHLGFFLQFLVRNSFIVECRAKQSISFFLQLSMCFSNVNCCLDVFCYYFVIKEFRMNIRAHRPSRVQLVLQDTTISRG

Cannabinoid receptor 2 [11] = target: T4, Cannabinoid receptor 2; assay: SAR analysis of antagonists of the Cannabinoid Receptor 2 using an Image-Based Assay. [Related pubchem assays (depositor defined):AID2013, AID2026]; assay type: functional
[12] = target: T5, G-protein coupled receptor 55; assay: GPR55 antagonist potency of analogs, SAR follow-up, imaging, U2OS, beta-arrestin-GFP, LPI agonist, set 2 (AID 2820); assay type: functional
Cannabinoid receptor 1 [13] = target: T2, Cannabinoid receptor 1; assay: SAR analysis of agonists of the Cannabinoid Receptor 1 using an Image-Based Assay - Set 2. [Related pubchem assays (depositor defined):AID2013, AID2026]; assay type: functional
[14] = target: T6, Corticotropin-releasing factor receptor 2/Corticotropin-releasing factor-binding protein (Homo sapiens, UniProt P24387+Q13324); assay: Dose Response confirmation of uHTS hits for small molecule antagonists of the CRF-binding protein and CRF-R2 receptor complex.; assay type: functional; settings: read-out: IC50_Mean
T6 sequence (Q13324 whole entry): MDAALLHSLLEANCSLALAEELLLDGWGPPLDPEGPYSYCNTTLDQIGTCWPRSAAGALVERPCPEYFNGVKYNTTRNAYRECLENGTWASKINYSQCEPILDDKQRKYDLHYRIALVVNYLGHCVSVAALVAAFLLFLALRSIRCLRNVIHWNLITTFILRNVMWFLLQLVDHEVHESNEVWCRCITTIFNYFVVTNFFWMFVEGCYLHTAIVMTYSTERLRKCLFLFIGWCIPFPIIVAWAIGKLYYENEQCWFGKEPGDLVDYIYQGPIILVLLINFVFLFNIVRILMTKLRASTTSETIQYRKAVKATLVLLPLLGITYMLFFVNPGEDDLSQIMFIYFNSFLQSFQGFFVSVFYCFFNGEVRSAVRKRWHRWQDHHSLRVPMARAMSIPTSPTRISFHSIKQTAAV
T6 sequence (P24387 whole entry): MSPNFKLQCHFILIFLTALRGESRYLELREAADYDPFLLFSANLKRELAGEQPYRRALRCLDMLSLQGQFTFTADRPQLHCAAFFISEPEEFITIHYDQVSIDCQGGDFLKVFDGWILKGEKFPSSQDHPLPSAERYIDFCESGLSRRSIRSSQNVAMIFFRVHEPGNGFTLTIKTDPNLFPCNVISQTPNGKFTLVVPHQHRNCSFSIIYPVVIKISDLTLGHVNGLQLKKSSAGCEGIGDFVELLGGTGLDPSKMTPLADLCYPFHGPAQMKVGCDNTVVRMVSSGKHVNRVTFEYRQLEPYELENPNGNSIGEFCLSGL

[15] = target: T6, Corticotropin-releasing factor receptor 2/Corticotropin-releasing factor-binding protein; assay: activators of CRF receptor 2 with binding protein – uHTS hits, confirmation (AID 602473); assay type: functional; settings: read-out: EC50_Mean
[16] = target: Luciferin 4-monooxygenase (Photinus pyralis, UniProt P08659); assay: firefly luciferase enzyme inhibitors, dose response, biochemical, luminescence (AID 1891)
Chain of Luciferin 4-monooxygenase (P08659 whole entry): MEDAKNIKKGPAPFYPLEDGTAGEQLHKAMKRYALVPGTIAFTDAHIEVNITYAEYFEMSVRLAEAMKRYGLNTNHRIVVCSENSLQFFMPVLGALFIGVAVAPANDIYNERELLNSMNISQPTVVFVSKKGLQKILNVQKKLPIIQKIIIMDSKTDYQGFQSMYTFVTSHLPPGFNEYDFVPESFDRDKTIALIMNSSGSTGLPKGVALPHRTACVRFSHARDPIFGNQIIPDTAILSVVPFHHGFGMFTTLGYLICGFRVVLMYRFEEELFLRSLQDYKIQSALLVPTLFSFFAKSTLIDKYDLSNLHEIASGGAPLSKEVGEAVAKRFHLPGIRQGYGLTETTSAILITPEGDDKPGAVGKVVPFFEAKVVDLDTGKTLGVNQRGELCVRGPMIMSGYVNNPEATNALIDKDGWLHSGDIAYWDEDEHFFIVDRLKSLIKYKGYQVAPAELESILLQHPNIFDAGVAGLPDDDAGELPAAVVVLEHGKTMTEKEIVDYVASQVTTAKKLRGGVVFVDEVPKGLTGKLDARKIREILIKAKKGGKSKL

[17] = Luminescence Cell-Based Dose Confirmation HTS to Identify Inhibitors of Platelet Dense Granule Release. [Related pubchem assays: 1663 (Primary HTS), 1678 (Summary of Project)]; assay type: functional
INS1 = assay: beta cell apoptosis inhibitors, cytokine rescue, dose response, luminescence, retest (AID 449756); assay type: functional, cell-based; settings: Rattus norvegicus;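 note: cell death triggered by IL-1 beta plus TNF-alpha plus IFN-gamma mixture; protective hits raise ATP signal compared with cytokine alone wells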
cells [18] = assay type: functional, cell-based
cells [19] = assay type: functional, cell-based; remark: listed apart in the source

Compound	AC50 [1]	CC50 [2]	CC50 [3]	IC50 (cells [4])	CC50 [5]	IC50 (Cannabinoid receptor 1 [6])	EC50 [7]	EC50 (Cannabinoid receptor 2 [8])	IC50 [9]	IC50 [10]	IC50 (Cannabinoid receptor 2 [11])	IC50 [12]	EC50 (Cannabinoid receptor 1 [13])	IC50 [14]	EC50 [15]	EC50 [16]	EC50 [17]	AC50 (INS1)	EC50 (cells [18])	EC50 (cells [19])
Cc1ccc(NC(=O)c2ccc([N+](=O)[O-])o2)cc1S(=O)(=O)N1CCOCC1	11.4 µM (active)	9.48 µM (active)	6.5 µM (active)	18.4 µM (active)	6.1 µM (active)															
COC(=O)C1=C(N)c2c(F)cccc2C1(C#N)c1ccccc1 (stereo not drawn)						> 32 µM (inactive)	> 32 µM (inactive)	> 32 µM (inactive)	> 32 µM (inactive)	2.34 µM (active)	> 32 µM (inactive)	0.928 µM (active)	> 32 µM (inactive)	> 47.1 µM (inactive)	> 53 µM (inactive)					
COc1cccc(/C=N/NC(=O)c2ccoc2C)c1O		6.69 µM (active)	9.35 µM (active)		4.17 µM (active)											4.56 µM (active)	2.09 µM (active)	3.85 µM (active)	82.2 µM (active)	7.29 µM (active)
